The text below walks through data of patent US9801372B2, “Polymers for increasing the soil mobility of low-solubility insecticides” (BASF SE, priority 2009, dated 2017).

The procedure of this data set: First, a calibration with the active ingredient to be determined is performed at a suitable wavelength in different concentrations. To study the solubilization with a polymeric solubilizer, a 1% by weight polymer solution is prepared and the UV absorption is measured at said wavelength. The polymer solution is saturated with the active ingredient to be analyzed and equilibrated for 24 h. After centrifugation of the solution and UV analysis of the supernatant at said wavelength, after subtracting the polymer absorption over the calibration curve, the dissolved active ingredient concentration can be concluded.
The fipronil concentration was determined by means of UV spectroscopy at 278 nm; to this end, the absorption of the polymer (1% by weight in water) was first determined alone. Subsequently, an excess of fipronil was added and the mixture was stirred at room temperature overnight. The centrifuged solution was analyzed once again at 278 nm in the UV instrument. After subtracting the appropriate solubilizer spectrum and comparing by means of a fipronil calibration curve produced beforehand, it was possible to determine the concentration of dissolved fipronil.

Consider `N#Cc1nn(-c2c(Cl)cc(C(F)(F)F)cc2Cl)c(N)c1[S+]([O-])C(F)(F)F` (centres unmarked) [Fipronil], for which the “Fipronil solubility in ppm” value is listed as 2.2 ppm. For Triton X-100 the value was 13 ppm.
